Data from PMC9668928, “Zandelisib (ME-401) in Japanese patients with relapsed or refractory indolent non-Hodgkin’s lymphoma: an open-label, multicenter, dose-escalation phase 1 study” (International Journal of Hematology, 2022).
Values joined by “and” are separate entries in the source; they are usually repeats but may differ in a detail not shown here. Equal entries are not always repeated.

What was measured:
[1] = test system: PI3Kδ; design: method as in PMID 21378270, PMID 21803855, PMID 20959606, PMID 31506873; conditions: cited from earlier work
[2] = test system: relapsed/refractory indolent non-Hodgkin's lymphoma (R/R iNHL); assay: Phase 1 study: anti-tumor efficacy, investigator-assessed, modified Lugano criteria; format: in vivo, human
Procedure: Efficacy endpoints included ORR; duration of response (DOR); progression-free survival (PFS); time to first response (TTR); and change in tumor size from baseline. Response was assessed by investigators based on the modified Lugano Classification lymphoma response criteria (modified Lugano criteria). If complete response (CR) was achieved by CT- or MRI-based assessment (not including bone marrow biopsy), PET/CT was performed to assess metabolic response (except for patients whose FDG-avidity was “non-avid” in the screening test). Additionally, a bone marrow biopsy was also performed if complete metabolic response was confirmed by PET/CT-based assessment. For efficacy outcomes, the Clopper–Pearson method was used to obtain 95% confidence intervals (CIs) for ORR. The Kaplan–Meier method was used to estimate the DOR and PFS for each cohort and overall. Statistical analyses were performed using SAS® software version 9.4 (SAS Institute Inc., Cary, NC, USA).

[3] = N = 9, median follow-up 17.5 months

SMILES: CN1CCC(c2ccccc2CC(C)(C)Nc2nc(N3CCOCC3)nc(-n3c(C(F)F)nc4ccccc43)n2)CC1 [zandelisib]
- target binding [1]: > 5 h
- median PFS ([2]; 45 mg group): 11.1 months
- Best overall response: Complete response ([2]; 45 mg, n = 3): 0 (0.0) n (%)
- Best overall response: Partial response ([2]; 45 mg, n = 3): 3 (100.0) n (%)
- Best overall response: Progressive disease ([2]; 45 mg, n = 3): 0 n (%)
- Best overall response: Stable disease ([2]; 45 mg, n = 3): 0 n (%)
- Objective response rate, % (95% CI) ([2]; 45 mg, n = 3): 100.0 (29.2–100.0) %
- median DOR ([2]; 60 mg group): 11.3 months
- median PFS ([2]; 60 mg group): 13.3 months
- Best overall response: Complete response ([2]; 60 mg, n = 6): 2 (33.3) n (%)
- Best overall response: Partial response ([2]; 60 mg, n = 6): 4 (66.7) n (%)
- Best overall response: Progressive disease ([2]; 60 mg, n = 6): 0 n (%)
- Best overall response: Stable disease ([2]; 60 mg, n = 6): 0 n (%)
- Objective response rate, % (95% CI) ([2]; 60 mg, n = 6): 100.0 (54.1–100.0) %
- median duration of response (DOR) [2, 3]: 7.9 months and 7.9 (95% CI 2.8–14.7) months
- median progression-free survival (PFS) [2, 3]: 11.1 months and 11.1 (95% CI 4.6–16.7) months
- median time to response (TTR) [2, 3]: 1.9 months and 1.9 (95% CI 1.8–2.1) months
- complete response (CR) rate ([2]; N = 9, 2 FL patients receiving 60 mg/day): 22.2% and 22%
- Best overall response: Complete response ([2]; Total, N = 9): 2 (22.2) n (%)
- Best overall response: Partial response ([2]; Total, N = 9): 7 (77.8) n (%)
- Best overall response: Progressive disease ([2]; Total, N = 9): 0 n (%)
- Best overall response: Stable disease ([2]; Total, N = 9): 0 n (%)
- Objective response rate, % (95% CI) ([2]; Total, N = 9): 100.0 (66.4–100.0) %
- patients achieved response at week 8 ([2]; after 2 administration cycles): 8/9
- decrease from baseline in the sum of perpendicular diameters ([2]; all patients, N = 9): > 50%
- best overall response of partial response (PR) ([2]; cohort 1, 45 mg): 3/3
- best overall response of CR ([2]; cohort 2, 60 mg): 2/6
- best overall response of PR ([2]; cohort 2, 60 mg): 4/6
- patients regained response after switching back from IDT to CS ([2]; of patients switched back to CS after PD): 2/4
